# Source: patent US20240360194A1, “New Peptides as Potent and Selective GIP Receptor Agonists” (Sanofi, priority 2021, published 2024)
# Numbered stars: 1 amine (or outer) side, 2 acyl side, 3 side chain; on linkers, the order of the positions; unused ones are H or OH. Square brackets hold non-standard residues; d marks the D form. Side chains are listed from the residue outwards. Ends that are not written are not given here. Peptide text beside a SMILES is read from it. * marks the point of attachment. C18 diacid = O=C(O)CCCCCCCCCCCCCCCCC(=O)*; γGlu = O=C(O)[C@H](CCC(=O)[*:2])N[*:1]; αMeV = CC(C)[C@](C)(N)C(=O)O; AEEA = NCCOCCOCC(=O)O; Aib = CC(C)(N)C(=O)O
# T1: human GIP receptor (hGIPR) (Homo sapiens, UniProt P48546)
# T1 sequence (P48546 22-466): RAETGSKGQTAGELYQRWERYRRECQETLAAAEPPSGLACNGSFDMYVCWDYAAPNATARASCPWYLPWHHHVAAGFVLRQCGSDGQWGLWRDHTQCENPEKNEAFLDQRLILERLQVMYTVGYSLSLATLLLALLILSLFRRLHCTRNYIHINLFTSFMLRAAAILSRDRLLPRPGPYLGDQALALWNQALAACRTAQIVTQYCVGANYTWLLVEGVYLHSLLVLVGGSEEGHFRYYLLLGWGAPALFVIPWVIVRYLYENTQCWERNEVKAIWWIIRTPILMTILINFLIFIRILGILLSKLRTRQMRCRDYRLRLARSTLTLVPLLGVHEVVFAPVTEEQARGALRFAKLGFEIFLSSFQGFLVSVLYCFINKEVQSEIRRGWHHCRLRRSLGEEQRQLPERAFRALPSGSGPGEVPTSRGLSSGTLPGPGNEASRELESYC
# T2: human GIP receptor (human, UniProt P48546 22-466)
# T2 sequence (looked up): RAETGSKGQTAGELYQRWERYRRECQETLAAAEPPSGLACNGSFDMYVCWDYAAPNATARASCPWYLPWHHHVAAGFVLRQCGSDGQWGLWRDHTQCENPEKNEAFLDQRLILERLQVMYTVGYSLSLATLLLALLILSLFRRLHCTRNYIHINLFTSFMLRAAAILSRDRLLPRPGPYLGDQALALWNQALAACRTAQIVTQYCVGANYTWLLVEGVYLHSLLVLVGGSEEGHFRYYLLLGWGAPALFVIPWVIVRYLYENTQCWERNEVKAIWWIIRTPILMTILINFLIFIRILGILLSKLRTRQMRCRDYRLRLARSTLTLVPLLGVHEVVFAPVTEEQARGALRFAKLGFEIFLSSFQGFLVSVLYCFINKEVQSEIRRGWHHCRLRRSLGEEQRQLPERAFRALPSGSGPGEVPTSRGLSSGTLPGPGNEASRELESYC
# B1: SEQ ID NO: 35 (peptide)
# peptide: Y[Aib]EGTFISDLSI[Aib]K([AEEA-AEEA-γGlu-C18 diacid])DRIHQEEFIQWLLAQGPSSGAPPPS-NH2
# modifications: N-terminus assumed
# SMILES: CC[C@H](C)[C@H](NC(=O)[C@H](Cc1ccccc1)NC(=O)[C@H](CCC(=O)O)NC(=O)[C@H](CCC(=O)O)NC(=O)[C@H](CCC(N)=O)NC(=O)[C@H](Cc1c[nH]cn1)NC(=O)[C@@H](NC(=O)[C@H](CCCNC(=N)N)NC(=O)[C@H](CC(=O)O)NC(=O)[C@H](CCCCNC(=O)COCCOCCNC(=O)COCCOCCNC(=O)CC[C@H](NC(=O)CCCCCCCCCCCCCCCCC(=O)O)C(=O)O)NC(=O)C(C)(C)NC(=O)[C@@H](NC(=O)[C@H](CO)NC(=O)[C@H](CC(C)C)NC(=O)[C@H](CC(=O)O)NC(=O)[C@H](CO)NC(=O)[C@@H](NC(=O)[C@H](Cc1ccccc1)NC(=O)[C@@H](NC(=O)CNC(=O)[C@H](CCC(=O)O)NC(=O)C(C)(C)NC(=O)[C@@H](N)Cc1ccc(O)cc1)[C@@H](C)O)[C@@H](C)CC)[C@@H](C)CC)[C@@H](C)CC)C(=O)N[C@@H](CCC(N)=O)C(=O)N[C@@H](Cc1c[nH]c2ccccc12)C(=O)N[C@@H](CC(C)C)C(=O)N[C@@H](CC(C)C)C(=O)N[C@@H](C)C(=O)N[C@@H](CCC(N)=O)C(=O)NCC(=O)N1CCC[C@H]1C(=O)N[C@@H](CO)C(=O)N[C@@H](CO)C(=O)NCC(=O)N[C@@H](C)C(=O)N1CCC[C@H]1C(=O)N1CCC[C@H]1C(=O)N1CCC[C@H]1C(=O)N[C@@H](CO)C(N)=O
# notes: Synthetic peptide, 39 residues (Gln at 24)
# Columns and labels:
# [1] = biological target: T1, human GIP receptor (hGIPR); experiment: In vitro cellular cAMP assay for GIP receptor efficacy (HEK-293 cell line over-expressing receptor); type: cell-based; details: EC50 hGIPR 0.1% BSA, HEK-293, 0.1% BSA
# [2] = biological target: T1, human GIP receptor (hGIPR); experiment: Binding assay, displacement of [125I]GIP from HEK-293 membranes over-expressing GIPR (SPA); details: [125I]GIP displacement
# How it was run: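 Membranes from HEK-293 cells over-expressing human GIPR or GLP-1R, isolated by homogenising, sonicating and ultracentrifuging at 100000×g into HEPES/EDTA/NaCl buffer with protease inhibitors, were used for binding.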
# [3] = biological target: human GLP-1 receptor (hGLP-1R) (Homo sapiens, UniProt P43220); experiment: Binding assay, displacement of [125I]GLP-1 from HEK-293 membranes over-expressing GLP-1R (SPA); details: [125I]GLP-1 displacement
# human GLP-1 receptor (hGLP-1R), sequence (P43220 24-463): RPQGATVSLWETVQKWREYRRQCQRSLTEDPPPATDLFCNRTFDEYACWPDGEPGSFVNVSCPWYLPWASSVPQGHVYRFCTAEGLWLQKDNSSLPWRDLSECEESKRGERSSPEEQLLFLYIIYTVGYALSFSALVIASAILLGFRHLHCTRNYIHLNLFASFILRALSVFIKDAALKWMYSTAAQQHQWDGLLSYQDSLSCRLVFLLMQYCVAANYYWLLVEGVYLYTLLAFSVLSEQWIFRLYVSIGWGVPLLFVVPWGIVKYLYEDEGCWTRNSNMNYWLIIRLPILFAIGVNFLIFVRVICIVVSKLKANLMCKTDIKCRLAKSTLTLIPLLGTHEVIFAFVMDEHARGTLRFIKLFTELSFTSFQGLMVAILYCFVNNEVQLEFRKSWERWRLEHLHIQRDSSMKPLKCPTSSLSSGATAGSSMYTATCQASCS
# Experimental: (1) Preparation of Membranes from HEK-293 Cells Over-Expressing GIPR or GLP-1R
# HEK-293 cells recombinantly over-expressing GIPR or GLP-1R were grown to 50% confluency, washed with warm 1×PBS (Gibco) and detached in HEPES/EDTA-buffer (100 mM HEPES pH 7.5, 5 mM EDTA). Cells were harvested by centrifugation at 4° C. and 3000×g and the pellets were stored at −80° C. until further processing.
# After thawing on ice, pellets were resuspended in HEPES/EDTA-buffer and homogenized on ice for 1 min using Ultra-Turray T25. After subsequent sonification the cell debris was removed by centrifugation at 1000×g and 4° C. Supernatants were then ultra-centrifuged at 100000×g and 4° C. under vacuum for 30 min. Pellets were resuspended in HEPES/EDTA/NaCl-buffer (20 mM HEPES, 1 mM EDTA, 150 mM NaCl; add 1 Complete Mini Protease inhibitor cocktail to 10 ml buffer) and protein content was determined via BCA-Protein assay.
# (2) Measurement of Binding Activity of Test Compounds to Human GIPR or GLP-1R
# human GIP receptor [4] = biological target: T2, human GIP receptor; experiment: cell-based or functional assay
# human GLP-1 receptor = human GLP-1 receptor (human, UniProt P43220 24-463); experiment: cell-based or functional assay
# human GIP receptor [5] = biological target: T2, human GIP receptor; experiment: cell-based or functional assay; remark: listed apart in the source
molecule,measurement,setting,value
"CC[C@H](C)[C@H](NC(=O)[C@H](CCCNC(=N)N)NC(=O)[C@H](CC(=O)O)NC(=O)[C@H](CCCCNC(=O)COCCOCCNC(=O)COCCOCCNC(=O)CC[C@H](NC(=O)CCCCCCCCCCCCCCCCC(=O)O)C(=O)O)NC(=O)C(C)(C)NC(=O)[C@@H](NC(=O)[C@H](CO)NC(=O)[C@H](CC(C)C)NC(=O)[C@H](CC(=O)O)NC(=O)[C@H](CO)NC(=O)[C@@H](NC(=O)[C@@](C)(CC)NC(=O)[C@@H](NC(=O)CNC(=O)[C@H](CCC(=O)O)NC(=O)C(C)(C)NC(=O)[C@@H](N)Cc1ccc(O)cc1)[C@@H](C)O)[C@@H](C)CC)[C@@H](C)CC)C(=O)N[C@@H](Cc1c[nH]cn1)C(=O)N[C@@H](CCC(N)=O)C(=O)NC(C)(C)C(=O)N[C@@H](CCC(=O)O)C(=O)N[C@@](C)(Cc1ccccc1)C(=O)N[C@H](C(=O)N[C@@H](CCC(=O)O)C(=O)N[C@@H](Cc1c[nH]c2ccccc12)C(=O)N[C@@H](CC(C)C)C(=O)N[C@@H](CC(C)C)C(=O)N[C@@H](C)C(=O)N[C@@H](CCC(N)=O)C(=O)N[C@@H](CCCNC(=N)N)C(=O)NCC(N)=O)[C@@H](C)CC [SEQ ID NO: 18, H2N-Y-Aib-E-G-T-Iva-I-S-D-L-S-I-Aib-K[{AEEA}2-gGlu-C18OH]-D-R-I-H-Q-Aib-E-Mph-I-E-W-L-L-A-Q-R-G-NH2]",EC50,[1],0.0179 nM
"CC[C@H](C)[C@H](NC(=O)[C@H](Cc1ccccc1)NC(=O)[C@H](CCC(=O)O)NC(=O)[C@H](CCC(=O)O)NC(=O)[C@H](CCC(N)=O)NC(=O)[C@H](Cc1c[nH]cn1)NC(=O)[C@@H](NC(=O)[C@H](CCCNC(=N)N)NC(=O)[C@H](CC(=O)O)NC(=O)[C@H](CCCCNC(=O)COCCOCCNC(=O)COCCOCCNC(=O)CC[C@H](NC(=O)CCCCCCCCCCCCCCCCC(=O)O)C(=O)O)NC(=O)C(C)(C)NC(=O)[C@@H](NC(=O)[C@H](CO)NC(=O)[C@H](CC(C)C)NC(=O)[C@H](CC(=O)O)NC(=O)[C@H](CO)NC(=O)[C@@H](NC(=O)[C@@](C)(NC(=O)[C@@H](NC(=O)CNC(=O)[C@H](CCC(=O)O)NC(=O)C(C)(C)NC(=O)[C@@H](N)Cc1ccc(O)cc1)[C@@H](C)O)C(C)C)[C@@H](C)CC)[C@@H](C)CC)[C@@H](C)CC)C(=O)N[C@@H](CCC(=O)O)C(=O)N[C@@H](Cc1c[nH]c2ccccc12)C(=O)N[C@@H](CC(C)C)C(=O)N[C@@H](CC(C)C)C(=O)N[C@@H](C)C(=O)N[C@@H](CCC(N)=O)C(=O)NCC(=O)N1CCC[C@H]1C(=O)N[C@@H](CO)C(=O)N[C@@H](CO)C(=O)NCC(=O)N[C@@H](C)C(=O)N1CCC[C@H]1C(=O)N1CCC[C@H]1C(=O)N1CCC[C@H]1C(=O)N[C@@H](CO)C(N)=O [SEQ ID NO: 26, H2N-Y-Aib-E-G-T-Mva-I-S-D-L-S-I-Aib-K[{AEEA}2-gGlu-C18OH]-DRIHQEEFIEWLLAQGPSSGAPPPS-NH2] (H-Y[Aib]EGT[αMeV]ISDLSI[Aib]K([AEEA-AEEA-γGlu-C18 diacid])DRIHQEEFIEWLLAQGPSSGAPPPS-NH2)",EC50,[1],0.0602 nM
"CC[C@H](C)[C@H](NC(=O)[C@H](Cc1ccccc1)NC(=O)[C@H](CCC(=O)O)NC(=O)[C@H](CCC(=O)O)NC(=O)[C@H](CCC(N)=O)NC(=O)[C@H](Cc1c[nH]cn1)NC(=O)[C@@H](NC(=O)[C@H](CCCNC(=N)N)NC(=O)[C@H](CC(=O)O)NC(=O)[C@H](CCCCNC(=O)COCCOCCNC(=O)COCCOCCNC(=O)CC[C@H](NC(=O)CCCCCCCCCCCCCCCCC(=O)O)C(=O)O)NC(=O)C(C)(C)NC(=O)[C@@H](NC(=O)[C@H](CO)NC(=O)[C@H](CC(C)C)NC(=O)[C@H](CC(=O)O)NC(=O)[C@H](CO)NC(=O)[C@@H](NC(=O)[C@H](Cc1ccccc1)NC(=O)[C@@H](NC(=O)CNC(=O)[C@H](CCC(=O)O)NC(=O)C(C)(C)NC(=O)[C@@H](N)Cc1ccc(O)cc1)[C@@H](C)O)[C@@H](C)CC)[C@@H](C)CC)[C@@H](C)CC)C(=O)N[C@@H](CCC(=O)O)C(=O)N[C@@H](Cc1c[nH]c2ccccc12)C(=O)N[C@@H](CC(C)C)C(=O)N[C@@H](CC(C)C)C(=O)N[C@@H](C)C(=O)N[C@@H](CCC(N)=O)C(=O)N[C@@H](CCCNC(=N)N)C(=O)NCC(=O)O [SEQ ID NO: 13, H2N-Y-Aib-E-G-T-F-I-S-D-L-S-I-Aib-K[{AEEA}2-gGlu-C18OH]-D-R-I-H-Q-E-E-F-I-E-W-L-L-A-Q-R-G-OH]",EC50,[1],0.0285 nM
same,IC50,[2],0.9 nM
same,IC50,[3],116 nM
B1,"EC50 hGIPR 0% HSA (cAMP, HEK-293)",human GIP receptor [4],0.24 pM
same,"EC50 hGIPR 0.1% BSA (cAMP, HEK-293)",human GIP receptor [4],10.7 pM
same,"EC50 hGLP-1R 0.1% BSA (cAMP, HEK-293)",human GLP-1 receptor,> 10 nM
same,"hGIPR EC50 (cAMP, human adipocytes)",human GIP receptor [5],1.3 nM
same,"hGIPR Emax (cAMP, human adipocytes)",human GIP receptor [5],120%
